This is an account of results in US4160097A, “1-(2-Phenylureylene)imidazoles” (Westwind Pharmaceuticals, Inc., priority 1977, dated 1979).

Assay [1] concerns Trichophyton mentagrophytes. In words: Antifungal activity, agar dilution method. In kind it is cell-based, Trichophyton mentagrophytes (ATCC No. 8757 and 9129). The settings on record: T. mentagrophytes, read-out: Parts Per Million Inhibitions of T. mentagrophytes. The method, then:
(§1) various compounds of this invention display antifungal and anti-yeast activity.
(§2) In Table IX below are listed the antifungal activity of a number of compounds encompassed in the present invention. These were determined by the agar dilution method as described in Chapters 2 and 3 of Methods in Microbiology, Vol. 7B, edited by J. R. Norris and D. W. Ribbons, Academic Press, New York, 1972.
(In agar dilution, organisms are placed on agar that contains the substance at set levels.)

The subject of another assay is Trichophyton rubrum. The experiment in a line: Antifungal activity, agar dilution method. Format: cell-based, Trichophyton rubrum (ATCC No. 10218 and 14001). The settings on record: T. rubrum, read-out: Parts Per Million Inhibitions of T. rubrum. The method, then: as §1, §2
Assay [2] relates to carrageenan rat paw edema. In words: Rat Paw Edema Assay, Local Administration. Format: in vivo. The note with it: read-out: % Difference from Control; for change in vivo at 0.001 mg: 1 μg; for change in vivo at 0.001 mg / change in vivo at 0.01 mg / change in vivo at 0.1 mg: injected directly into paw; for change in vivo at 0.01 mg: 10 μg; for change in vivo at 0.1 mg: 100 μg; for change in vivo at 100 mg/kg: local administration. The method, then:
(§3) The anti-inflammatory activity of representative compounds of this invention was determined by the rat paw edema assay both by local administration (Table XI below) and by oral dosing (Table XII below). For the oral dosing, the procedure of C. A. Winter, E. A. Risley and G. W. Nuss, Proc. Soc. Exp. Biol. Med. III, 544 (1962) was employed with measurement taken four hours after the drug was administered. The local administration tests were carried out similarly except the irritant (carrageenan) and the test compound were injected simultaneously at time zero.
(§4) Tables XI and XII report the anti-inflammatory activity of the compounds tested as % difference in the edema or swelling as compared with the control. These Tables also give the response in many instances of more than one dose level of the same drug.

The test system of assay [3] is carrageenan rat paw edema. In words: Rat Paw Edema Assay, Oral Dosing. In kind it is in vivo. The settings on record: 4 h, 100 mg/kg oral, four hours after drug, read-out: % Difference from Control. The method, then: as §3, §4
In assay [4] the test system is cell-mediated immune response to the antigen, Mycobacterium tuberculosis H37Ra. The experiment in a line: delayed hypersensitivity test. In kind it is in vivo, mouse. The note with it: Mus musculus, sc, read-out: D.H.S. (ED60). The method, then:
The immunosuppressant activities of the compounds of this invention were determined via the hemolysin test in mice and by the delayed hypersensitivity test. The hemolysin test used is that described in Methods in Immunology, edited by D. H. Campbell et al, W. A. Benjamin, New York 1963 pages 172-175, and measures humeral or antibody response. The delayed hypersensitivity test measures the effect of a test compound on the ability of a subject mouse to mount a cell-mediated immune response to the antigen, Mycobacterium tuberculosis H37Ra. The mouse is sensitized to the antigen by subcutaneous administration in the base of the tail. The development of the delayed hypersensitivity response may be measured at any time beginning six days after sensitization but is usually done on the ninth day as follows: The right hind paw is injected with purified protein derivative (tuberculin) while the left hind paw (control) receives physiological saline. Both paw volumes are measured after twenty-four hours and significant increase in the volume of the right hand paw is taken as a measure of an effective delayed hypersensitivity response. All compounds were administered by the subcutaneous route.
The D.H.S. (ED60) mg./kg. s.c. value appearing in column 3 is an expression of the effectiveness of the drug in reducing the edema that accompanies the cell-mediated immune response. It is a measure of the number of milligrams per kilogram of body weight of the drug administered subcutaneously which is required to reduce the edema of the cell-mediated immune response by 60% when compared to the control.

The subject of a further assay is Candida albicans. The experiment in a line: Antifungal activity, agar dilution method. Format: cell-based, Candida albicans (ATCC No. 10231). The note with it: C. albicans, read-out: Parts Per Million Inhibitions of C. albicans. The method, then: as §1, §2
A further assay relates to Trichophyton ajelloi. In words: Antifungal activity, agar dilution method. In kind it is cell-based. The note with it: Arthroderma uncinatum, T. ajelloi, read-out: Parts Per Million Inhibitions of T. ajelloi. The method, then:
as §1, §2

The next assay relates to Candida tropicalis. The experiment in a line: Antifungal activity, agar dilution method. Format: cell-based. The settings on record: C. tropicalis, read-out: Parts Per Million Inhibitions of C. tropicalis. The method, then: as §1, §2
Assay [5] relates to humeral or antibody response. In words: hemolysin test in mice. In kind it is in vivo. The settings on record: Mus musculus, sc, dose reducing antibody activity by 50% vs control, read-out: HL(ED50).
Another assay relates to Aspergillus niger. In words: Antifungal activity, agar dilution method. The settings on record: A. niger, read-out: Parts Per Million Inhibitions of A. niger. In kind it is cell-based, Aspergillus niger (ATCC No. 16404). The method, then:
as §1, §2

In another assay the test system is immune response. The experiment in a line: immunosuppressant activity (general statement). In kind it is in vivo, mice. The settings on record: statement in words.
[6] abbreviates: mice, dose reducing edema of cell-mediated immune response by 60% vs control.

For orientation: ED50 means the dose at which the effect has come halfway, by size or by number of responders.

Each structure is given as a SMILES string. Values after ≈ are worked out from the molar mass of the structure shown. Where two headings read alike, the source gives them in different places.

With `CCCCCc1nc2ccccc2n2ccnc12` [Compound 114], the MIC in assay [1] is 16 µg/mL (≈ 66.9 µM). In addition, the MIC in the assay on Trichophyton rubrum is 1 µg/mL (≈ 4.18 µM). For the same compound, in assay [2], the change in vivo at 0.001 mg worked out at 68.2%, the change in vivo at 0.01 mg is -30% and the change in vivo at 0.1 mg was -132%. In addition, the change in vivo at 100 mg/kg in assay [3] is -61%.

Turning to `Cc1cccc(-c2nc3ccccc3n3ccnc23)c1` [Compound 133], the ED60 in assay [4] (setting [6]) was 32 mg/kg. Besides, the MIC in the assay on Candida albicans stood at 100 µg/mL (≈ 386 µM); in assay [1] it was 8 µg/mL (≈ 30.9 µM); with Trichophyton ajelloi it was 8 µg/mL (≈ 30.9 µM); in the assay with Candida tropicalis, 100 µg/mL (≈ 386 µM); in the assay on Trichophyton rubrum, 8 µg/mL (≈ 30.9 µM). Moreover, in [5], the median effective dose (ED50) was 0.75 mg/kg. For the same compound, the change in vivo at 100 mg/kg in assay [3] is -17%.

Turning to `Cc1nc2ccccc2n2ccnc12` [Compound 110], in assay [4] (setting [6]), the ED60 is 50 mg/kg. The MIC with Aspergillus niger worked out at 128 µg/mL (≈ 699 µM); in assay [1], 128 µg/mL (≈ 699 µM); in the assay with Trichophyton rubrum, 64 µg/mL (≈ 349 µM). The results for the change in vivo at 100 mg/kg in assay [2] and in assay [3] were -74% and -43%, respectively.

Turning to `CCCCCCC(=O)Nc1ccccc1-n1ccnc1` [Compound 7], the values for the change in vivo at 100 mg/kg in assay [2] and in assay [3] were -22% and -52%, respectively.

`C1=CCC(c2nc3ccccc3n3ccnc23)CC1` (stereo not shown) [Compound 130]: the MIC (in the assay on Candida albicans; in assay [1]; in the assay on Trichophyton ajelloi; in the assay with Candida tropicalis) was 100 µg/mL (≈ 401 µM) each time.

For the compound `O=C(Nc1ccccc1-n1ccnc1)c1ccccc1Cl` [Compound 49], the change in vivo at 100 mg/kg in [2] and in assay [3] was -35% in each case.

With `Nc1ccc(-c2nc3ccccc3n3ccnc23)cc1` [Compound 153], in assay [4] (setting [6]), the ED60 was found to be 5.7 mg/kg. In the assay on Candida tropicalis, the MIC worked out at 100 µg/mL (≈ 384 µM). The 50% effective dose (ED50) in assay [5] amounted to 1.2 mg/kg.

As to `COc1cccc(-c2nc3ccccc3n3ccnc23)c1` [Compound 159], the ED60 in assay [4] (setting [6]) was 27 mg/kg. The MIC (in [1]; in the assay with Trichophyton ajelloi; with Trichophyton rubrum) was 100 µg/mL (≈ 363 µM) throughout. For the same compound, the median effective dose (ED50) in assay [5] is 3 mg/kg.

Take `c1ccc2c(c1)ncc1nccn12` [Compound 109, imidazo[1,2-a]quinoxaline, reference compound]: in [4] (setting [6]), the ED60 was more than 50 mg/kg. In addition, the MIC in [1] is 128 µg/mL (≈ 757 µM). In addition, in assay [5], the ED50 was more than 50 mg/kg. In addition, the MIC in the assay on Trichophyton rubrum came to 32 µg/mL (≈ 189 µM). Further, the immunosuppressant activity entry in the assay on immune response is “lacks immunosuppressant activity”. Besides, in [2], the change in vivo at 0.001 mg is -30.8%, the change in vivo at 0.01 mg is -3.9% and the change in vivo at 0.1 mg amounted to 31.6%. In addition, the change in vivo at 100 mg/kg in assay [3] was -17%.

As for `FC(F)(F)c1nc2ccccc2n2ccnc12` [Compound 122], the MIC in the assay on Trichophyton rubrum was determined as 32 µg/mL (≈ 135 µM). Also, the change in vivo at 100 mg/kg in assay [2] and in assay [3] was -61% in each case.

Regarding `O=C(Nc1ccccc1-n1ccnc1)c1ccc(Cl)cc1` [Compound 51], the change in vivo at 100 mg/kg in [2] and in [3] was -57% each time.

On to `c1ccc(-c2nc3ccccc3n3ccnc23)cc1` [Compound 131, 4-phenylimidazo[1,2-a]quinoxaline, reference compound], for which the ED60 in [4] (setting [6]) was 81 mg/kg. The MIC stood at 16 µg/mL (≈ 65.2 µM) in assay [1] and 2 µg/mL (≈ 8.15 µM) in the assay with Trichophyton rubrum. Further, the ED50 in [5] stood at 18 mg/kg. In addition, in the assay with immune response, the immunosuppressant activity result was “only minor activity”. Besides, the change in vivo at 100 mg/kg in [3] is -52%.

As for `Clc1ccc(-c2nc3ccccc3n3ccnc23)cc1` [Compound 140], the ED60 in [4] (setting [6]) was 1.15 mg/kg. The ED50 in assay [5] is 0.26 mg/kg. For the same compound, the MIC in the assay with Trichophyton rubrum is less than 0.5 µg/mL. The change in vivo at 100 mg/kg in assay [2] is -78%; in [3] it was -35%.

For the compound `O=C(O)c1ccccc1-c1nc2ccccc2n2ccnc12` [Compound 148], in assay [2], the change in vivo at 0.001 mg is -32.6%, the change in vivo at 0.01 mg was -53.5%, the change in vivo at 0.1 mg is -14.3% and the change in vivo at 100 mg/kg is -39%. For the same compound, the change in vivo at 100 mg/kg in [3] is -52%.

`c1ccc2c(c1)nc(C1CCCCC1)c1nccn12` [Compound 129]: the MIC in assay [1] came out at 16 µg/mL (≈ 63.7 µM); in the assay with Trichophyton ajelloi, 16 µg/mL (≈ 63.7 µM); in the assay with Trichophyton rubrum, 8 µg/mL (≈ 31.8 µM). In addition, the change in vivo at 100 mg/kg in assay [3] was -30%.

With `Fc1ccccc1-c1nc2ccccc2n2ccnc12` [Compound 173], the ED60 in [4] (setting [6]) was 40 mg/kg. The MIC (in assay [1]; with Trichophyton ajelloi; with Trichophyton rubrum) was 100 µg/mL (≈ 380 µM) each time.

Consider `c1ccc(Cc2nc3ccccc3n3ccnc23)cc1` [Compound 124], for which the MIC is 100 µg/mL (≈ 386 µM) in the assay with Candida albicans; 100 µg/mL (≈ 386 µM) in assay [1]; 100 µg/mL (≈ 386 µM) in the assay with Trichophyton ajelloi; 100 µg/mL (≈ 386 µM) in the assay with Candida tropicalis; 8 µg/mL (≈ 30.9 µM) in the assay with Trichophyton rubrum.

Turning to `CCCCc1nc2ccccc2n2ccnc12` [Compound 113], the MIC (in the assay on Candida albicans; in [1]; in the assay on Candida tropicalis) was 100 µg/mL (≈ 444 µM) each time.

For `c1ccc(OCc2nc3ccccc3n3ccnc23)cc1` [Compound 126], in assay [4] (setting [6]), the ED60 was more than 50 mg/kg. For the same compound, the MIC (in assay [1]; with Trichophyton ajelloi; in the assay on Trichophyton rubrum) was 100 µg/mL (≈ 363 µM) each time. For the same compound, in assay [5], the 50% effective dose (ED50) is 35 mg/kg.

In the case of `O=C(Nc1ccccc1-n1ccnc1)c1ccc(-c2ccccc2)cc1` [Compound 40], the MIC (with Candida albicans; in [1]; with Trichophyton ajelloi; with Candida tropicalis) was 100 µg/mL (≈ 295 µM) throughout. The change in vivo at 100 mg/kg in assay [3] is -43%.

With `CCCNc1nc2ccccc2n2ccnc12` [Compound 169], in assay [4], the ED60 is more than 50 mg/kg. Besides, the MIC (in assay [1]; in the assay on Trichophyton ajelloi; in the assay on Trichophyton rubrum) was 100 µg/mL (≈ 442 µM) in each case. Moreover, the ED50 in assay [5] was 46 mg/kg.
